From ChEMBL document CHEMBL1909046, “DrugMatrix in vitro pharmacology data”
pIC50: −log10 of the molar value.

How the values were obtained:
[1] = target: Beta-2 adrenergic receptor (Homo sapiens, UniProt P07550); test: DRUGMATRIX: Adrenergic beta2 radioligand binding (ligand: [3H] CGP-12177); format: cell membranes, CHO, Membrane; conditions: cho; Not Active = under 50% inhibition at 10 µM
Thromboxane-A synthase = target: T1, Thromboxane-A synthase (Homo sapiens, UniProt P24557); test: biochemical; format: tissue-based, Platelet; conditions: for IC50: platelet; for pIC50: read-out: IC50;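 for all read-outs here: enzyme inhibition assay with PGH2 supplied as substrate; in other assays of this panel Not Active means under 50% inhibition at 10 µM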
T1 sequence (P24557 whole entry): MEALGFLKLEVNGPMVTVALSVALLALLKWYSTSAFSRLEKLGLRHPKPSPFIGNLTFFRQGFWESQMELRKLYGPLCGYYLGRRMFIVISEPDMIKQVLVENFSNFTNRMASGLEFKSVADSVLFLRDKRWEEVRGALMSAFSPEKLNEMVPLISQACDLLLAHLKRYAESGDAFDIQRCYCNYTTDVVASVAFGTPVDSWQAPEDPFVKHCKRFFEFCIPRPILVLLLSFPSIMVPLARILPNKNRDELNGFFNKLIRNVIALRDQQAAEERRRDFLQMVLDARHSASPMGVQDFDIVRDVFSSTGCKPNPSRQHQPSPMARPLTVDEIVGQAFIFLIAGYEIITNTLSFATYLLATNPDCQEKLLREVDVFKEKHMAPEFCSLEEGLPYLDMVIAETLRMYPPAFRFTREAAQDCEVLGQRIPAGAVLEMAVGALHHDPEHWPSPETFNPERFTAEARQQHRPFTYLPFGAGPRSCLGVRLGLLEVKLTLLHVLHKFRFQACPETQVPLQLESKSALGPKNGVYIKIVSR

[2] = target: T2, C-X-C chemokine receptor type 1 (Homo sapiens, UniProt P25024); note: in other assays of this panel Not Active means under 50% inhibition at 10 µM
T2 sequence (P25024 whole entry): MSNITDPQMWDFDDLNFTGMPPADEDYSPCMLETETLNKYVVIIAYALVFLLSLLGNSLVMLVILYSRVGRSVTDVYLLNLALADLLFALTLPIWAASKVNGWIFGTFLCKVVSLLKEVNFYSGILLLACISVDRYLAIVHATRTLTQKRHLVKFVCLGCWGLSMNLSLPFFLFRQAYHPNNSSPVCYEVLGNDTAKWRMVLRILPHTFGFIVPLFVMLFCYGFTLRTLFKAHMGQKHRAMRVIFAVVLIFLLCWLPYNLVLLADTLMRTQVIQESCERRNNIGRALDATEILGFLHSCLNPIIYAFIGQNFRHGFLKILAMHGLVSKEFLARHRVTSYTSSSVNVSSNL

Endothelin-1 receptor = target: T3, Endothelin-1 receptor (Homo sapiens, UniProt P25101); format: cell membranes, Membrane; conditions: cho-k1; note: in other assays of this panel Not Active means under 50% inhibition at 10 µM
T3 sequence (P25101 whole entry): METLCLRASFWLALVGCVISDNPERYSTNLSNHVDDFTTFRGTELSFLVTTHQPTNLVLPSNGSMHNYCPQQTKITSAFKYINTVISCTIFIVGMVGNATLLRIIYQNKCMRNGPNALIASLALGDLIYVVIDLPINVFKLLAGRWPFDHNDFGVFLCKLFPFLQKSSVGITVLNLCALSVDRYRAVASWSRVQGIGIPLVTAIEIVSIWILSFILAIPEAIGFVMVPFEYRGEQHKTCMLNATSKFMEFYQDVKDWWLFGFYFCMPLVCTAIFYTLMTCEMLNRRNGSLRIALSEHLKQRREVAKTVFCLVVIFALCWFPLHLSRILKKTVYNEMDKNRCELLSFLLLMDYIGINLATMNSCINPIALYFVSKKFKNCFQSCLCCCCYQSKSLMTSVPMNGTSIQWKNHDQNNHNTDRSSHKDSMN

[3] = DRUGMATRIX: Imidazoline I2, Central radioligand binding (ligand: [3H] Idazoxan); format: cell membranes, Rattus norvegicus, Wistar, Cerebral cortex, Membrane; conditions: Not Active = under 50% inhibition at 10 µM
Interstitial collagenase = target: T4, Interstitial collagenase (Homo sapiens, UniProt P03956); test: biochemical; format: tissue-based, Rheumatoid synovial fibroblasts;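 note: MMP-1 enzyme inhibition assay using a peptide substrate; in other assays of this panel Not Active means under 50% inhibition at 10 µM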
T4 sequence (P03956 whole entry): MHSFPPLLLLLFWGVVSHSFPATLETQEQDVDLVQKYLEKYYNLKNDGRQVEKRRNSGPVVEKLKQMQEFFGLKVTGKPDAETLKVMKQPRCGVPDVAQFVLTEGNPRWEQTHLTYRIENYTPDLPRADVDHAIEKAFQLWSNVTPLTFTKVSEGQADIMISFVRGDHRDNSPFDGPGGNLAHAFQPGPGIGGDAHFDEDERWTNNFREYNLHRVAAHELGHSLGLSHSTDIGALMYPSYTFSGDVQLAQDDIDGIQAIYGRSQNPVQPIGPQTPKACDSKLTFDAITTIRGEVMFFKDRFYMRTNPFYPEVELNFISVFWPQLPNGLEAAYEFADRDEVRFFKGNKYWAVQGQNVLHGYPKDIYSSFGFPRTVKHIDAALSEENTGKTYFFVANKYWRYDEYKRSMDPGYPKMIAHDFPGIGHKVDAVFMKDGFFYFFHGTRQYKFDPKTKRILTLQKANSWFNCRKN

Chain of Beta-2 adrenergic receptor (P07550 whole entry): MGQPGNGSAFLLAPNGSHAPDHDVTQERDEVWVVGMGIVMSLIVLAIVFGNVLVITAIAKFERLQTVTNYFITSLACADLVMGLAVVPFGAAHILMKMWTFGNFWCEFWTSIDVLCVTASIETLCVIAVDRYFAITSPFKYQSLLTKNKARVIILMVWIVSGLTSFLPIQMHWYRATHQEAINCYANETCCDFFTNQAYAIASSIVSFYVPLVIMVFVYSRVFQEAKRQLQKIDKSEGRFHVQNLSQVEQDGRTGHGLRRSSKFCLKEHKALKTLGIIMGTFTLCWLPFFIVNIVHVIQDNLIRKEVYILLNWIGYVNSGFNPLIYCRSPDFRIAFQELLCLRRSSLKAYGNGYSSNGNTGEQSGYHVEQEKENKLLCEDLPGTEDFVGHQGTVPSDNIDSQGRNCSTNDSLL

SMILES	IC50 [1]	IC50 (Thromboxane-A synthase)	IC50 [2]	IC50 (Endothelin-1 receptor)	IC50 [3]	Ki [3]	IC50 (Interstitial collagenase)	pIC50 (Thromboxane-A synthase)	pIC50 (Interstitial collagenase; read-out: IC50)
CC#C[C@]1(O)CC[C@H]2[C@@H]3CCC4=CC(=O)CCC4=C3[C@@H](c3ccc(N(C)C)cc3)C[C@@]21C [MIFEPRISTONE]	Not Active	Not Active	Not Active	Not Active	Not Active	Not Active	Not Active		
CC[C@@]1(O)C(=O)OCc2c1cc1n(c2=O)Cc2cc3c(CN(C)C)c(O)ccc3nc2-1 [TOPOTECAN]	Not Active	Not Active	Not Active	Not Active	Not Active	Not Active	Not Active		
Nc1nc(N)c2nc(-c3ccccc3)c(N)nc2n1	Not Active	Not Active	Not Active	Not Active	Not Active	Not Active	Not Active		
Cc1cc2c(s1)Nc1ccccc1N=C2N1CCN(C)CC1 [OLANZAPINE]	Not Active	Not Active	Not Active	Not Active			Not Active		
CC[C@H](C)[C@@H](CO[C@@H](Cc1ccccc1)C(=O)N[C@@H](CCS(C)(=O)=O)C(=O)OC(C)C)NC[C@@H](N)CS	Not Active	Not Active	Not Active	Not Active	Not Active	Not Active	Not Active		
CO[C@@]12[C@H](COC(N)=O)C3=C(C(=O)C(C)=C(N)C3=O)N1C[C@@H]1N[C@@H]12 [MITOMYCIN]	Not Active	Not Active	Not Active	Not Active	Not Active	Not Active	Not Active		
CCOC(=O)C1=C(C)NC(C)=C(C(=O)OCC)C1c1ccccc1/C=C/C(=O)OC(C)(C)C [LACIDIPINE]	Not Active		Not Active	Not Active	Not Active	Not Active	Not Active	5.77	
Cc1cn([C@H]2C=C[C@@H](CO)O2)c(=O)[nH]c1=O [STAVUDINE]	Not Active	Not Active	Not Active	Not Active	Not Active	Not Active	Not Active		
C#C[C@]1(O)CC[C@H]2[C@@H]3[C@H](C)CC4=C(CCC(=O)C4)[C@H]3CC[C@@]21C [TIBOLONE]	Not Active	Not Active	Not Active	Not Active	Not Active	Not Active	Not Active		
CC(O)C(=O)O (centres undefined) [LACTIC ACID]	Not Active	Not Active	Not Active	Not Active	Not Active	Not Active	Not Active		
O=C(O)c1cc(/N=N/c2ccc(S(=O)(=O)Nc3ccccn3)cc2)ccc1O [SULFASALAZINE]	Not Active		Not Active	Not Active	Not Active	Not Active		4.71	4.63
CCN(CC)C(=S)SSC(=S)N(CC)CC	Not Active	Not Active	Not Active	Not Active	Not Active	Not Active	Not Active		
CNCCCC12CCC(c3ccccc31)c1ccccc12 [MAPROTILINE]	Not Active	Not Active	Not Active	Not Active			Not Active		
Cc1ccc(Cl)c(Nc2ccccc2C(=O)O)c1Cl [MECLOFENAMIC ACID]	Not Active	Not Active	Not Active	Not Active	Not Active	Not Active	Not Active		
